Assay results as given in ChEMBL document CHEMBL1777812, “New 1,4-di-N-oxide-quinoxaline-2-ylmethylene isonicotinic acid hydrazide derivatives as anti-Mycobacterium tuberculosis agents” (Bioorg Med Chem Lett, 2011).

Key:
[1] = tested on: Mycobacterium tuberculosis; assay: Antimycobacterial activity against Mycobacterium tuberculosis H37Rv ATCC 27294 by microplate Alamar blue assay; assay type: functional, organism-based
[2] = Cytotoxicity against african green monkey Vero cells after 72 hrs by Cell titer Glo luminescent cell viability assay; assay type: cell-based; conditions: chlorocebus sabaeus
[3] = Selectivity index, Ratio of CC50 for african green monkey Vero cells to IC90 for Mycobacterium tuberculosis H37Rv ATCC 27294; assay type: toxicity, cell-based

SMILES | IC50 [1] [nM] | IC90 [1] [µM] | CC50 at 72 h [2] [µM] | selectivity ratio [3]
COc1ccc2c(c1)[n+]([O-])c(C(=O)NCc1ccccc1)c(C)[n+]2[O-] | 18900 | 36.4 | – | –
Cc1c(C(=O)NCc2ccccc2)[n+]([O-])c2cc(Cl)ccc2[n+]1[O-] | 1100 | 1.25 | > 291 | > 231
Cc1ccc2c(c1)[n+]([O-])c(C(=O)NCc1ccccc1)c(C)[n+]2[O-] | 8350 | 13 | > 309 | > 23.8
Cc1c(C(=O)NCc2ccccc2)[n+]([O-])c2cc(C(F)(F)F)ccc2[n+]1[O-] | < 810 | 1.07 | > 265 | > 246
Cc1c(C(=O)NCc2ccccc2)[n+]([O-])c2cc(F)ccc2[n+]1[O-] | 2830 | 4.65 | > 306 | > 65.7
Cc1c(C(=O)NCc2ccccc2)[n+]([O-])c2ccccc2[n+]1[O-] | 4910 | 8.42 | > 323 | > 38.4
Cc1cc2c(cc1C)[n+]([O-])c(C(=O)NCc1ccccc1)c(C)[n+]2[O-] | 90800 | 296 | – | –
Cc1c(/C=N/NC(=O)c2ccncc2)[n+]([O-])c2ccccc2[n+]1[O-] | 1170 | 1.32 | > 124 | > 93
Cc1c(/C=N/NC(=O)c2ccncc2)[n+]([O-])c2cc(Cl)ccc2[n+]1[O-] | 1040 | 1.16 | 55.8 | 48.1
COc1ccc2c(c1)[n+]([O-])c(/C=N/NC(=O)c1ccncc1)c(C)[n+]2[O-] | < 590 | 50.6 | – | –
Cc1ccc2c(c1)[n+]([O-])c(/C=N/NC(=O)c1ccncc1)c(C)[n+]2[O-] | 1330 | 18.2 | 52.1 | 2.86
Cc1cc2c(cc1C)[n+]([O-])c(/C=N/NC(=O)c1ccncc1)c(C)[n+]2[O-] | 1220 | 2.57 | > 124 | > 43.5
Cc1c(/C=N/NC(=O)c2ccncc2)[n+]([O-])c2cc(F)ccc2[n+]1[O-] | < 580 | 23.1 | 76.5 | 3.31
Cc1c(/C=N/NC(=O)c2ccncc2)[n+]([O-])c2cc(C(F)(F)F)ccc2[n+]1[O-] | 1500 | 3.5 | 70 | 20
NNC(=O)c1ccncc1 [ISONIAZID] | – | 0.21 | > 500 | > 20000
